US9012489B2, “Phenyl-3-aza-bicyclo[3.1.0]hex-3-yl-methanones and the use thereof as medicament” (Boehringer Ingelheim International GmbH, priority 2011, dated 2015)

What follows are molecules tested against T1, GlyT1 transporter (Homo sapiens, UniProt P48067) (assay: GlyT1 assay: 3H-glycine uptake into SK-N-MC cells (Cytostar-T format)). Conditions: glycine uptake in human SK-N-MC cells endogenously expressing GlyT1; 500 nM glycine, 1% DMSO, signal recorded over 60 min.
T1 construct: endogenously expressing the GlyT1 transporter; host or cells: SK-N-MC human neuroblastoma cells
T1 sequence (P48067 1-706): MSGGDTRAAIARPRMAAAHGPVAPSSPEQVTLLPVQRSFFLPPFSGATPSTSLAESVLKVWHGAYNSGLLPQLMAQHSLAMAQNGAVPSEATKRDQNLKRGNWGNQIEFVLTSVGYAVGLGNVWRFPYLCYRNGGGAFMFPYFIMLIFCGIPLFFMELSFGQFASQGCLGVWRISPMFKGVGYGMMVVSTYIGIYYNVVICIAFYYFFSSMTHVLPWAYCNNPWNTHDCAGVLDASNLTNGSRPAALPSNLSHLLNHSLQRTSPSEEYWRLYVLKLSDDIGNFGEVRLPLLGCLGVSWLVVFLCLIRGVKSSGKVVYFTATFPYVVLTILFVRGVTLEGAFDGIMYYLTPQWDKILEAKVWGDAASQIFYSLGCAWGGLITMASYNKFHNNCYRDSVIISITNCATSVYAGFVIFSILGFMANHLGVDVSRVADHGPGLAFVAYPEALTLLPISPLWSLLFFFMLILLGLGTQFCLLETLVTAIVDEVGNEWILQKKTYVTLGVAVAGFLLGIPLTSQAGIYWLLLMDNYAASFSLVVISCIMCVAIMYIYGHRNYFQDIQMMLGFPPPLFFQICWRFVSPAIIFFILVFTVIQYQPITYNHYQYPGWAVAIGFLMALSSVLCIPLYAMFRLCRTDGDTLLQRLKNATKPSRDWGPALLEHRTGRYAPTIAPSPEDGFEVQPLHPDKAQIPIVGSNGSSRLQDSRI
Format: cell-based
Method in brief: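 Uptake slopes, measured over 60 min from the linear kinetic range, give IC50 from 8 compound concentrations, with 10 μM RG-1678 setting background. Substrate is 500 nM glycine (250 nM ³H, 250 nM unlabelled) in HBSS/5 mM alanine, 1% DMSO, after roughly 5-10 min compound preincubation. Cells: confluent SK-N-MC endogenously expressing human GlyT1.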

Compound	IC50 [nM]
CCS(=O)(=O)c1ccc(O[C@H](C)C(F)(F)F)c(C(=O)N2CC3CC3(c3nccc(C(F)(F)F)n3)C2)c1 (single isomer, unassigned) [Example 77, [5-Ethanesulfonyl-2-(2,2,2-trifluoro-1-methyl-ethoxy)-phenyl]-[1-(4-trifluoromethyl-pyrimidin-2-yl)-3-aza-bicyclo[3.1.0]hex-3-yl]-methanone]	113
COC1(c2nc(C34CC3CN(C(=O)c3cc(S(C)(=O)=O)ccc3O[C@H](C)C(F)(F)F)C4)no2)CC1 (single isomer, unassigned) [Example 121, [5-Methanesulfonyl-2-(2,2,2-trifluoro-1-methyl-ethoxy)-phenyl]-{1-[5-(1-methoxy-cyclopropyl)-[1,2,4]oxadiazol-3-yl]-3-aza-bicyclo[3.1.0]hex-3-yl}-methanone]	349
Cc1nnc(C23CC2CN(C(=O)c2cc(S(C)(=O)=O)ccc2O[C@@H](C)C(F)(F)F)C3)o1 (mixture of isomers) [Example 38, [5-Methanesulfonyl-2-(2,2,2-trifluoro-1-methyl-ethoxy)-phenyl]-[1-(5-methyl-[1,3,4]oxadiazol-2-yl)-3-aza-bicyclo[3.1.0]hex-3-yl]-methanone]	89
Cc1c(C23CC2CN(C(=O)c2cc(S(C)(=O)=O)ccc2O[C@@H](C)C(F)(F)F)C3)noc1C(F)(F)F (single isomer, unassigned) [Example 165]	394
Cc1nc(C23CC2CN(C(=O)c2cc(S(C)(=O)=O)ccc2O[C@H](C)C(F)(F)F)C3)no1 (single isomer, unassigned) [Example 43, [5-Methanesulfonyl-2-(2,2,2-trifluoro-1-methyl-ethoxy)-phenyl]-[1-(5-methyl-[1,2,4]oxadiazol-3-yl)-3-aza-bicyclo[3.1.0]hex-3-yl]-methanone]	251
CCS(=O)(=O)c1ccc(O[C@H](C)C(F)(F)F)c(C(=O)N2CC3CC3(c3noc(C(F)(F)F)n3)C2)c1 (mixture of isomers) [Example 92, [5-Ethanesulfonyl-2-(2,2,2-trifluoro-1-methyl-ethoxy)-phenyl]-[1-(5-trifluoromethyl-[1,2,4]oxadiazol-3-yl)-3-aza-bicyclo[3.1.0]hex-3-yl]-methanone]	25
CC(Oc1ccc(C#N)cc1C(=O)N1CC2CC2(c2noc(C(F)(F)F)n2)C1)C(F)(F)F (stereo not drawn) [Example 39, 4-(2,2,2-Trifluoro-1-methyl-ethoxy)-3-[1-(5-trifluoromethyl-[1,2,4]oxadiazol-3-yl)-3-aza-bicyclo[3.1.0]hexane-3-carbonyl]-benzonitrile]	143
C[C@H](Oc1ccc(S(C)(=O)=O)cc1C(=O)N1CC2CC2(c2cncc(C(F)(F)F)c2)C1)C(F)(F)F (mixture of isomers) [Example 53, [5-Methanesulfonyl-2-(2,2,2-trifluoro-1-methyl-ethoxy)-phenyl]-[1-(5-trifluoromethyl-pyridin-3-yl)-3-aza-bicyclo[3.1.0]hex-3-yl]-methanone]	70
C[C@H](Oc1ccc(-c2ncco2)cc1C(=O)N1CC2CC2(c2noc(C(F)(F)F)n2)C1)C(F)(F)F (mixture of isomers) [Example 100, [5-Oxazol-2-yl-2-(2,2,2-trifluoro-1-methyl-ethoxy)-phenyl]-[1-(5-trifluoromethyl-[1,2,4]oxadiazol-3-yl)-3-aza-bicyclo[3.1.0]hex-3-yl]-methanone]	916
CS(=O)(=O)c1ccc(O[C@@H]2CCOC2)c(C(=O)N2CC3CC3(c3noc(C(F)(F)F)n3)C2)c1 (mixture of isomers) [Example 138, [5-Methanesulfonyl-2-(tetrahydro-furan-3-yloxy)-phenyl]-[1-(5-trifluoromethyl-[1,2,4]oxadiazol-3-yl)-3-aza-bicyclo[3.1.0]hex-3-yl]-methanone]	261
CS(=O)(=O)c1ccc(-n2ccc(C(F)(F)F)n2)c(C(=O)N2CC3CC3(c3noc(C(F)(F)F)n3)C2)c1 (racemic) [Example 141, [5-Methanesulfonyl-2-(3-trifluoromethyl-pyrazol-1-yl)-phenyl]-[1-(5-trifluoromethyl-[1,2,4]oxadiazol-3-yl)-3-aza-bicyclo[3.1.0]hex-3-yl]-methanone]	764
C[C@@H](Oc1ccc(S(C)(=O)=O)cc1C(=O)N1CC2CC2(c2nc(C(F)(F)F)co2)C1)C(F)(F)F (mixture of isomers) [Example 113, [5-Methanesulfonyl-2-(2,2,2-trifluoro-1-methyl-ethoxy)-phenyl]-[1-(4-trifluoromethyl-oxazol-2-yl)-3-aza-bicyclo[3.1.0]hex-3-yl]-methanone]	216

Stronger by IC50, values ahead:

IC50 [nM]	Compound
19	CCS(=O)(=O)c1ccc(O[C@@H](C)C(F)(F)F)c(C(=O)N2CC3CC3(c3noc(C(F)(F)F)n3)C2)c1 (mixture of isomers) [Example 40, [5-Ethanesulfonyl-2-(2,2,2-trifluoro-1-methyl-ethoxy)-phenyl]-[1-(5-trifluoromethyl-[1,2,4]oxadiazol-3-yl)-3-aza-bicyclo[3.1.0]hex-3-yl]-methanone]
18	CCS(=O)(=O)c1ccc(O[C@@H](C)C(F)(F)F)c(C(=O)N2CC3CC3(c3cc(C(F)(F)F)on3)C2)c1 (mixture of isomers) [Example 102, [5-Ethanesulfonyl-2-(2,2,2-trifluoro-1-methyl-ethoxy)-phenyl]-[1-(5-trifluoromethyl-isoxazol-3-yl)-3-aza-bicyclo[3.1.0]hex-3-yl]-methanone]
16	C[C@H](Oc1ccc(S(C)(=O)=O)cc1C(=O)N1CC2CC2(c2nc(C(F)(F)F)no2)C1)C(F)(F)F (single isomer, unassigned) [Example 84, [5-Methanesulfonyl-2-(2,2,2-trifluoro-1-methyl-ethoxy)-phenyl]-[1-(3-trifluoromethyl-[1,2,4]oxadiazol-5-yl)-3-aza-bicyclo[3.1.0]hex-3-yl]-methanone]
15	Cc1nc(C23CC2CN(C(=O)c2cc(S(C)(=O)=O)ccc2O[C@H](C)C(F)(F)F)C3)no1 (mixture of isomers) [Example 101, [5-Methanesulfonyl-2-(2,2,2-trifluoro-1-methyl-ethoxy)-phenyl]-[1-(5-methyl-[1,2,4]oxadiazol-3-yl)-3-aza-bicyclo[3.1.0]hex-3-yl]-methanone]
13	C[C@@H](Oc1ccc(S(C)(=O)=O)cc1C(=O)N1CC2CC2(c2nnc(C(F)(F)F)o2)C1)C(F)(F)F (single isomer, unassigned) [Example 123, [5-Methanesulfonyl-2-(2,2,2-trifluoro-1-methyl-ethoxy)-phenyl]-[1-(5-trifluoromethyl-[1,3,4]oxadiazol-2-yl)-3-aza-bicyclo[3.1.0]hex-3-yl]-methanone]
10	COC1(c2nc(C34CC3CN(C(=O)c3cc(S(C)(=O)=O)ccc3O[C@@H](C)C(F)(F)F)C4)no2)CC1 (mixture of isomers) [Example 116, [5-Methanesulfonyl-2-(2,2,2-trifluoro-1-methyl-ethoxy)-phenyl]-{1-[5-(1-methoxy-cyclopropyl)-[1,2,4]oxadiazol-3-yl]-3-aza-bicyclo[3.1.0]hex-3-yl}-methanone]
8	Cc1c(C23CC2CN(C(=O)c2cc(S(C)(=O)=O)ccc2O[C@H](C)C(F)(F)F)C3)noc1C(F)(F)F (mixture of isomers) [Example 160]
6	COC1(c2nc(C34CC3CN(C(=O)c3cc(S(C)(=O)=O)ccc3O[C@@H](C)C(F)(F)F)C4)no2)CC1 (single isomer, unassigned) [Example 117, [5-Methanesulfonyl-2-(2,2,2-trifluoro-1-methyl-ethoxy)-phenyl]-{1-[5-(1-methoxy-cyclopropyl)-[1,2,4]oxadiazol-3-yl]-3-aza-bicyclo[3.1.0]hex-3-yl}-methanone]
6	C[C@@H](Oc1ccc(S(C)(=O)=O)cc1C(=O)N1CC2CC2(c2coc(C3CC3)n2)C1)C(F)(F)F (mixture of isomers) [Example 81, [1-(2-Cyclopropyl-oxazol-4-yl)-3-aza-bicyclo[3.1.0]hex-3-yl]-[5-methanesulfonyl-2-((S)-2,2,2-trifluoro-1-methyl-ethoxy)-phenyl]-methanone]
4	CCS(=O)(=O)c1ccc(O[C@@H](C)C(F)(F)F)c(C(=O)N2CC3CC3(c3nccc(C(F)(F)F)n3)C2)c1 (single isomer, unassigned) [Example 74, [5-Ethanesulfonyl-2-(2,2,2-trifluoro-1-methyl-ethoxy)-phenyl]-[1-(4-trifluoromethyl-pyrimidin-2-yl)-3-aza-bicyclo[3.1.0]hex-3-yl]-methanone]
3	C[C@@H](Oc1ccc(S(C)(=O)=O)cc1C(=O)N1CC2CC2(c2coc(C3CC3)n2)C1)C(F)(F)F (single isomer, unassigned) [Example 83]
3	C[C@H](Oc1ccc(S(C)(=O)=O)cc1C(=O)N1CC2CC2(c2coc(C3CC3)n2)C1)C(F)(F)F (mixture of isomers) [Example 80, [1-(2-Cyclopropyl-oxazol-4-yl)-3-aza-bicyclo[3.1.0]hex-3-yl]-[5-methanesulfonyl-2-((S)-2,2,2-trifluoro-1-methyl-ethoxy)-phenyl]-methanone]
